Measured values published in patent US9095541B2, “Brain tumor targeting peptides and methods” (Arch Cancer Therapeutics, Inc., priority 2009, dated 2015).
“Also recorded” adds a separate entry of the source. Values belong to the substance of their own block, whether it stands above or below them.

Assays:
[1] = system: U87R cells; assay: Subtractive/selective biopanning of Ph.D.-12 phage display library against U87R cells, sequencing of subclones; parameters: species or system human; conditions: given as n/100
Description: The present inventors have earlier described an in vivo selection for a population of human glioma cells that were highly invasive (U87R). In order to isolate peptides that could bind specifically to these highly invasive glioma cells, a biopanning experiment using a combinatorial phage display library was employed. Initially subtractive biopanning was performed with the U87 cells that were non-invasive (U87T) followed by selective biopanning with the U87R cells to isolate a library of phage (FIG. 1A) that were confirmed to preferentially interact with U87R cells by whole-cell ELISA (FIG. 1B).
Biopanning was performed as described in [61]. Subtraction cells (e.g. U87T) were released from tissue culture plastic with Puck's EDTA, and after washing with PBS, 1×10^7 cells were resuspended in 1% BSA in PBS with 1.5×10^11 pfu of Ph.D.-12 M13 Phage Library (New England Biolabs). The cells and phage were incubated in an eppendorf tube for 1 hour at room temperature with gentle shaking, before pelleting the cells and retaining the supernatant, which was transferred to a fresh tube with another aliquot of subtraction cells. The incubation and transfer of supernatant was performed three times, with the supernatant being transferred to an empty tube on the last round. Selection cells were released from tissue culture plastic with Puck's EDTA (e.g. U87R cells) and washed in PBS. 5×10^6 cells were resuspended in the 3× subtracted supernatant and incubated for 4 hours at 4° C. with slow shaking. The cell pellet was washed 5× in cold 1% BSA/0.1% Tween 20 in PBS five times, changing the tube after each wash. Bound phage were eluted by rocking the cells gently for 10 minutes at 4° C. in 1 mL of 0.2M Glycine-HCl pH 2.2 with 1 mg/mL BSA, and the supernatant was immediately neutralized with 150 μL of 1M Tris-HCl pH 9.1. The final library was amplified as per manufacturer's protocol.

[2] = system: BTIC isolates (BTIC 12, 25, 42, 50); assay: Biopanning of phage display library against a mixture of BTIC isolates, sequencing of subclones; conditions: BTIC-binding phage subclones; given as n/50 subclones screened
[3] = system: implanted GBM tumor from the BT025 cell line; assay: In vivo targeting of fluorescent peptide to implanted BT025 tumor, fluorescence microscopy of brain sections; parameters: species or system mice; conditions: for distribution of fluorescent peptide signal in brain sections: BT025 tumor; for localization of peptide conjugate in human GBM tissue in vivo (summary): intravenous administration, BT025 tumor (general statements also cover U87MG tumors)
Description: (§1) In the studies shown in FIGS. 13A and 13B, brain tumors were implanted in mice with a patient-derived BTIC cell line BT025 identified as above by its binding to the 7A peptide. After tumor growth from the implanted cells, the tumors were removed, sectioned and stained for microscopic visualization. In the studies shown in FIGS. 14-19, a fluorescent peptide was administered intravenously, either by intracorotid injection or via tail vein into mice having an implanted GBM tumor from the BT025 cell line (FIGS. 14-17) or the U87MG cell line (FIGS. 18 and 19), and after localization of the peptide, the animal were sacrificed and their brain tumors removed for sectioning and visualization by fluorescence microscopy.
The peptide was administered to the mouse via intracarotid injection and allowed to circulate for approximately half an hour to allow clearance of background signal before the mouse was sacrificed and the brain removed for imaging using an Olympus OV100 whole mouse imaging system. By non-magnified inspection, the large outgrowth of the tumor is obvious.
FIGS. 14B and 14C are lower and higher magnification photomicrographs of a thin section taken from the brain in FIG. 14A after it was bisected close to the tumor implantation site and stained for human nuclear antigen (green) and total DNA (blue) to outline the positioning of the cells. The red peptide signal is visible on cells immediately adjacent to the main tumor mass as well as spread diffusely in the surrounding tissue.

[4] = system: BTIC lines (neurospheres); assay: Staining with biotin-labeled synthetic peptide, confocal, BTIC neurospheres; type: binding, human; conditions: neurospheres stained in suspension
Description: (§2) Binding specificity of the 7A peptide was assessed with non-target (U87MG; NSC) and target (BTIC) cells using a biotinylated 7A peptide (red) followed by confocal imaging.
(§3) To confirm the preferential binding of 7A to the BTICs rather than the cells used for subtraction, neurospheres and U87MG cells were stained in suspension with biotin-labeled synthetic peptide. […] Examination of the interaction of all selected peptides across a panel of BTIC lines underscored the heterogeneity within each cell population, and established a platform for correlating the ability to bind particular peptide sequences with either cell behavior or patient outcome.
(§4) Adherent cells: 13 mm coverslips were coated with neutralized 3 mg/mL Collagen I (PureCol), allowed to dry, then plated with test cells at 1×10^4/mL, 0.5 mL volume and allowed to equilibrate 20 minutes under normal culture conditions. Coverslips were fixed for 10 minutes in 3% formaldehyde in PBS, washed, then incubated in biotinylated peptide (3 mM stock) or primary antibody at a 1:100 dilution in 2% BSA/0.02% Tween 20 in PBS for 1 hour at room temperature. After washing in PBS, secondary antibody or streptavidin-Alexa 568 was applied at a dilution of 1:250 for 1 hour before coverslips were washed and mounted with DAKO mounting media with antifade. […]

[5] = system: BTIC 12 and BTIC 25 xenografts; assay: In vivo phage homing, BTIC xenografts, anti-phage immunohistochemistry; parameters: species or system SCID mice; conditions: phage perfused 10 minutes
Description: (§5) Cells were injected into the right brain hemisphere of SCID mice and allowed to establish for three months. Mice were then perfused with 7A or A1 (random control) phage for 10 minutes. […] 7A homing was not observed in mice bearing tumors generated from the U251N cell line.
(§6) 3×10^4 U87T cells, 3×10^5 U87R cells or 5×10^4 BTICs were injected in a 3 μL volume into one brain hemisphere of a SCID mouse and allowed to grow for 4, 6 or 12 weeks respectively. The mice were anaesthetized, then treated with 150 μL of 20% (w/v) mannitol for 15 minutes before injecting 5×10^9 pfu into the brain via the carotid. After allowing the phage to circulate for 10 minutes, unbound phage were flushed out of the circulatory system with 15 mL of PBS injected into the left ventricle after the right atrium was clipped. The brains were harvested, immediately frozen on dry ice and embedded in OCT for sectioning.
(§7) Serial sections were fixed with cold acetone, and rehydrated through an ethanol gradient. Endogenous peroxidases in the sections were inactivated with 0.075% H2O2/methanol, and nonspecific binding was blocked with 10% normal goat serum in PBS. […] Avidin-biotin peroxidase complexes were then formed using the VECTASTAIN Elite ABC kit (Vector Laboratories) and detected by addition of […] […]

[6] = system: U251N human glioblastoma line xenografts; assay: In vivo phage homing, U251N xenografts; parameters: species or system SCID mice; conditions: phage perfused, anti-phage immunohistochemistry
Description: as §5, §6, §7

[7] = system: normal stem cells (NSC); assay: Staining with biotin-labeled synthetic peptide, confocal, normal stem cells; type: binding; conditions: not tumorigenic cells
Description: as §2, §3
Suspended neurospheres: 50 μL of densely suspended neurospheres were stained as described above, except in suspension in an eppendorf tube. The stained neurospheres were mounted in a drop of DAKO mounting media under a coverslip.

[8] = system: U87MG cells; assay: Staining with biotin-labeled synthetic peptide, confocal, U87MG; type: binding, human
Description: as §2, §3, §4

[9] = system: U87T (main tumor) cells; assay: Peptide binding to U87T cells; parameters: species or system human
[10] = system: U87R (HIGC) cells; assay: Peptide binding to U87R cells; parameters: species or system human
[11] = system: implanted GBM tumor from the U87MG cell line; assay: In vivo targeting of fluorescent peptide to implanted U87MG tumor, fluorescence microscopy of brain sections; parameters: species or system mice
Description: as §1
FIGS. 18A and 18B-18D show similar views, where the animal was injected with a fluorescently labeled modified H10 peptide (SEQ ID NO: 17, preferential for HIGC binding), in animals carrying a tumor initiated with the U87MG human glioblastoma cell line. For these studies, the tumors were not grown as large, and a far-red fluorescent signal is not obvious from inspection without sectioning (FIG. 18A).
FIGS. 19A and 19B and 19D show similar views, where the animal was injected with a fluorescently labeled modified E10 peptide (SEQ ID NO: 13, which binds to both BTIC's and HIGC's), in animals carrying a tumor initiated with the U87MG human glioblastoma cell line. […]

[12] = system: U87MG cells transfected with p75^NTR; assay: Transwell migration assay, p75NTR-transfected U87MG; type: cell-based, human; conditions: in vitro invasion assay
Description: The membranes of 8 μm pore sized transwell inserts (Corning Costar) were coated with brain-like matrix (720 μL of 3 mg/mL collagen I (PureCol); 180 μL of 10×DMEM (Invitrogen); 9 uL of 1 mg/mL human plasma fibronectin (Sigma); 9 uL of 1 mg/mL chondroitin sulfate proteoglycans (Chemicon); 16 μL of 0.15 mg/mL laminin (Chemicon)) on both sides, allowed to dry, then plated with 5×10^4 cells in 100 μL media in the upper chamber and 500 μL media in the lower chamber. Inclusion of collagen was essential to see the inhibitory effect of H10 (FIG. S4). 3×10^10 pfu of test phage were added to the upper chambers containing the cells, which were incubated for 4 hours under normal culture conditions. At the end of the incubation, the media was aspirated and the cells were fixed and stained in 1% crystal violet in 95% ethanol for one minute. Transwells were rinsed in PBS, then cells on the upper membrane surfaces were removed with a cotton swab. Cells which had migrated to the undersurface of the membranes were counted by light microscopy, and the sum of cells in five microscopic fields was recorded for each membrane.

Substance: CIQLANPPRLXG [M23]
number cell-binding phages containing that sequence [1]: 2/100

Substance: EHMALTYPFRPP (synthetic HIGC targeting peptide) [C12]
number cell-binding phages containing that sequence [1]: 13/100

Substance: GISLSSYLQSTQ (synthetic HIGC targeting peptide) [M32]
number cell-binding phages containing that sequence [1]: 20/100

Substance: GMSLSRQMLWSL (synthetic HIGC targeting peptide) [F2]
number cell-binding phages containing that sequence [1]: 2/100

Substance: HLFPQSNYGGHS (synthetic HIGC targeting peptide) [M24]
number cell-binding phages containing that sequence [1]: 2/100

Substance: HWAPSMYDYVSW (synthetic HIGC targeting peptide) [M5]
number cell-binding phages containing that sequence [1]: 7/100

Substance: IRSIRMRRILIL (synthetic BTIC targeting peptide) [C1]
number of phage subclones containing that sequence [2]: 2/50

Substance: KTSMRPLILIHI (synthetic BTIC targeting peptide) [3B]
distribution of fluorescent peptide signal in brain sections ([3]; intracarotid injection): binds to cells that are both within and outside the main tumor mass
localization of peptide conjugate in human GBM tissue in vivo (summary) [3]: can localize in human GBM tissue in vivo
number of phage subclones containing that sequence [2]: 2/50

Substance: PSPHRQRQHILR (synthetic BTIC targeting peptide) [7A]
distribution of fluorescent peptide signal in brain sections ([3]; intracarotid injection): binds primarily to cells that are diffusely spread outside the main tumor mass
fluorescent signal in whole brain imaging of tumor ([3]; intracarotid injection, approximately half an hour circulation, Olympus OV100): appears strongly in part of the tumor, but clearly does not detect all tumor cells present
localization of peptide conjugate in human GBM tissue in vivo (summary) [3]: can localize in human GBM tissue in vivo
binding of peptide to BTICs [4]: high percentage of positive cells within the neurosphere
in vivo phage staining of BTIC xenografts [5]: only a subset of cells within the main tumor masses of BTIC 12 and 25 showed positive staining
in vivo phage staining of U251N xenografts [6]: no staining was detected
binding of peptide to normal stem cells [7]: predominantly negative
binding of peptide to U87MG cells [8]: predominantly negative
number of phage subclones containing that sequence [2]: 25/50

Substance: QTIRIIIRRSRT (synthetic BTIC targeting peptide) [10C]
number of phage subclones containing that sequence [2]: 6/50

Substance: RTVPDYTAHVRT (synthetic HIGC targeting peptide) [M43]
number cell-binding phages containing that sequence [1]: 5/100

Substance: SGHQLLLNKMPN (synthetic HIGC targeting peptide) [M19]
number cell-binding phages containing that sequence [1]: 4/100

binding of peptide to BTICs [4]: binds
Substance: SLHMRHKRKPRR (synthetic BTIC targeting peptide) [E10]
binding to U87T (main tumor) cells [9]: bind
binding to U87R (HIGC) cells [10]: bind
distribution of fluorescent peptide signal in brain sections ([11]; intracarotid injection): binds to a portion of cells within the main tumor mass; also recorded: also binds to cells outside of the main tumor mass
localization of peptide conjugate in human GBM tissue in vivo (summary) ([11]; intravenous administration): can localize in human GBM tissue in vivo
binding of peptide to U87MG cells [8]: binds
number of phage subclones containing that sequence [2]: 4/50

Substance: SSRSMQRTLIIS (synthetic BTIC targeting peptide) [3F]
distribution of fluorescent peptide signal in brain sections ([3]; intracarotid injection): most of the red signal appears outside of the main tumor mass
localization of peptide conjugate in human GBM tissue in vivo (summary) [3]: can localize in human GBM tissue in vivo
number of phage subclones containing that sequence [2]: 2/50

Substance: SVSVGMKPSPRP (synthetic HIGC targeting peptide) [A2]
number cell-binding phages containing that sequence [1]: 21/100

Substance: methyl-β-cyclodextran
cell migration of U87p75 glioma cells [12]: significantly inhibited cell migration
